Measurements: ChEMBL document CHEMBL5725365, “Tyrosine kinase inhibitors” (2017)

Target: Tyrosine-protein kinase BTK (Homo sapiens, UniProt Q06187)
Assay: Enzymatic Activity Assay: A Caliper-based kinase assay (Caliper Life Sciences, Hopkinton, Mass.) was used to measure inhibition of BTK kinase activity of a compound of the present disclosure. Serial dilutions of test compounds were incubated with human recombinant BTK (0.5 nM), ATP (16 μM) and a phosphoacceptor peptide substrate FAM-[…]-NH2(1 μM) at room temperature for 3 h. The reaction was then terminated with EDTA, final concentration 20 mM and the phosphorylated reaction product was quantified on a Caliper Desktop Profiler (Caliper LabChip 3000).

Sequence of Tyrosine-protein kinase BTK (Q06187 whole entry): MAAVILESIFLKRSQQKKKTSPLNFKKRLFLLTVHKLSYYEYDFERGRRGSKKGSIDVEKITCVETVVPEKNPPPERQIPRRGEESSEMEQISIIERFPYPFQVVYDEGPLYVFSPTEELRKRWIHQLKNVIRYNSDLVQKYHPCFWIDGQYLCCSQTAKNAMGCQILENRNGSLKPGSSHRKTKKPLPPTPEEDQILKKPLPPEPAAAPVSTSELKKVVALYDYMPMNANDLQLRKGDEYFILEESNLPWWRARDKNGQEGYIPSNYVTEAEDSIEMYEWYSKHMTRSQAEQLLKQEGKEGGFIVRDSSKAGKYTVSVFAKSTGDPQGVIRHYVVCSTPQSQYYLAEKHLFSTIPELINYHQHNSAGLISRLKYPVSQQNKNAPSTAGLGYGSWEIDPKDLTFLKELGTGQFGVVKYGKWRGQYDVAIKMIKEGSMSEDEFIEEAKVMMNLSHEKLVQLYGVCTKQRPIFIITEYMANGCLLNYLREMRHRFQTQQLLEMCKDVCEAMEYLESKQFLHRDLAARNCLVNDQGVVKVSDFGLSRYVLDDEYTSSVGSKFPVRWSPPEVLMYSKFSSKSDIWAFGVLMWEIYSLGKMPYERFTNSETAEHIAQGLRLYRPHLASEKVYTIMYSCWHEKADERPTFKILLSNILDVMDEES

IC50: 24 nM
SMILES: CC(C)(C=C(C#N)C(=O)N1CCC[C@@H](n2c(=O)n(-c3ccc(Oc4ccccc4)cc3)c3c(N)nccc32)C1)C(=O)N1CCN(C2COC2)CC1
